Entries after “also recorded” stand apart in the source; their conditions may differ.
Experiments:
GalNAc-T4 lectin domain = target: T1, GalNAc-T4 lectin domain (Homo sapiens, UniProt Q8N4A0); experiment: Inhibition of GalNAc-T4 lectin domain (T4ld) binding to GalNAc-MUC1 glycopeptide, ELISA
T1 construct: comprises amino acid residues 405-578 of GALNT4; made in house; host or cells: baculovirus (pAcGP67-A), virus made in Sf9, protein produced in High Five insect cells
Procedure: (§1) Direct binding ELISA assay was developed as follows: Polystyrene microtiter plates (Maxisorb, Nunc, Denmark) were coated with peptides or enzymatically glycosylated glycopeptides in PBS overnight at 4° C. Plates were washed and blocked with 0.1% Tween20 and 0.2% BSA in PBS for 1 h at room temperature, followed by incubation with biotinylated proteins in PBS with 0.05% Tween20 for 2 h at room temperature. After four washes with PBS, plates were incubated with 1:2,000 dilution streptavidin-HRP (Sigma) in PBS for 30 min at room temperature and washed four times with PBS. Development was performed with 0.5 mg/ml o-phenylenediamine and 0.02% H2O2 at room temperature for 15 min, and reaction stopped by adding 100 μl/well of 0.5 N H2SO4. Competitive inhibition assays were done at end-point titers of GalNAc-transferase proteins with one hour preincubations with inhibitor.
In binding studies using lectins without biotinylation antibodies to the HIS-tag and the T7-tag, or in some experiments antibodies raised to GalNAc-T2 and -T4 enzymes were used to detect binding.
(§2) Inhibition experiments were used to further define the binding specificity of GalNAc-T2 and -T4 secreted soluble enzymes as well as lectin domains compared to Helix Pomatia lectin (Table IV).

[1] = target: T2, secreted soluble GalNAc-T4 (Homo sapiens, UniProt Q8N4A0); experiment: Inhibition of secreted soluble GalNAc-T4 (sT4) binding to GalNAc-MUC1 glycopeptide, ELISA
T2 construct: 6xHis (N); thrombin cleavage site (N); T7 antibody site (N); made in house; host or cells: baculovirus (pAcGP67A), High Five insect cells
Procedure: as §1, §2

[2] = tested on: MUC1 secreted by wild type CHO/MUC1sol-cloneC4; experiment: Secreted MUC1 in medium, western blot; type: cell-based, Chinese Hamster; details: 1-2 mM, compared to control treated or non-treated cells
From the text: Because GalNAcα-benzyl exerts separate effects on O-glycan processing and mucin expression, the use of the novel selective inhibitor of mucin expression, GalNAcβ-benzyl, allow analysis of mucin expression and secretion in different cell line models. Examples of human cell lines (available from ATCC, USA) expressing and secreting mucins are without limitations LS174T, HT29, Colo205, CALU, MCF7, T47D, NCI-H292, and A549. Most human adenocarcinoma cell lines express and secret mucins and analysis with antibodies to detect protein expression or probes to detect mRNA can reveal the types and quantities of mucins. […] This and other cell lines can be used to treat with 2 mM GalNAcβ-benzyl. In this Example we used wild type CHO/MUC1sol-cloneC4 and western blot analysis of medium of cells treated with 1-2 mM GalNAcα-benzyl, GalNAcβ-benzyl, or the control GlcNAcα-benzyl. […] The inhibitory effect on mucin secretion can be quantified by a number of assays known to the skilled in the art including western blot, ELISA, gelfiltration, immunocapture, and other assays.

[3] = tested on: MUC5AC in HT-29 MTX cells; experiment: MUC5AC secretion, SDS-PAGE western blot of media with LUM5-1 (FIG. 17); type: cell-based, human; details: 5 mM, continuous culture, media at 14 days
Procedure: FIG. 17 illustrates SDS-PAGE Western analysis of MUC5AC secretion from HT29MTX cells using polyclonal anti-MUC5AC antibody LUM5-1. In order to evaluate GalNAcβ-benzyl as an inhibitor of mucin glycosylation and secretion we used the HT-29 metotrexate (MTX) cultured colon carcinoma cells of mucin secreting phenotype. HT-29 MTX cells have a goblet cell like phenotype with constitutive production of MUC5AC. Cells were continuously grown up to 21 days in the presence of 5 mM GalNAcα-benzyl, 5 mM GalNAcβ-benzyl, 5 mM GlcNAcα-benzyl and without inhibitor. […] In striking contrast, MUC5AC was not detected in the media from cells treated with GalNAcα-benzyl (Lane 3) or GalNAcβ-benzyl (Lane 4). Results shown are from media collected at 14 days.
(§3) In order to evaluate GalNAcβ-benzyl as an inhibitor of mucin glycosylation and secretion we used the cultured colon carcinoma cells of mucin secreting phenotypes: HT-29 metotrexate (MTX) cells selected from the HT-29 cell line by culture in the presence of MTX (kind gift from G. Huet, France). The HT-29 MTX cells were selected to yield a goblet cell like phenotype with constitutive production of MUC5AC. In order to ensure proper goblet cell differentiation the HT29MTX cell line were continuously grown up to 21 days in the presence of 5 mM GalNAcα-benzyl, 5 mM GalNAcβ-benzyl, 5 mM GlcNAcα-benzyl and without inhibitor using culture conditions as described in Hennebicq-Reig et al. (Permanent exposure of mucin-secreting HT-29 cells to benzyl-N-acetyl-alpha-D-galactosaminide induces abnormal O-glycosylation of mucins and inhibits constitutive and stimulated MUC5AC secretion. Biochem J. 1998; 334:283-95). […] Furthermore the viscosity of the media from cells with and without inhibitor was evaluated using viscosity micro-measurement.

[4] = tested on: MUC1 in CHO1d1D/MUC1F-clone2 cells; experiment: MUC1 expression in cell lysates, immunoprecipitation and SDS-PAGE western blot (FIGS. 12-15); type: cell-based, Chinese Hamster; details: 2 mM, 48 hours, 5E5 blot
GalNAc-T7 = GalNAc-T7 (Homo sapiens, UniProt Q86SF2); details: mM concentrations; cited from earlier work
[5] = tested on: intracellular MUC5AC, HT29MTX cells; experiment: Intracellular MUC5AC by immunofluorescence staining of HT29MTX cells; type: cell-based, human; details: 5 mM, CLH2 antibody
From the text: FIG. 18 illustrates immuno-fluorescence staining of HT29MTX cells treated with inhibitors as indicated and stained with the anti-MUC5AC monoclonal antibody, CLH2.
as §3

O-glycan processing = details: cited from earlier work
β3Gal-T5 = β3Gal-T5 (Homo sapiens, UniProt Q9Y2C3); details: cited from earlier work
Sequence of β3Gal-T5 (Q9Y2C3 whole entry, species assumed): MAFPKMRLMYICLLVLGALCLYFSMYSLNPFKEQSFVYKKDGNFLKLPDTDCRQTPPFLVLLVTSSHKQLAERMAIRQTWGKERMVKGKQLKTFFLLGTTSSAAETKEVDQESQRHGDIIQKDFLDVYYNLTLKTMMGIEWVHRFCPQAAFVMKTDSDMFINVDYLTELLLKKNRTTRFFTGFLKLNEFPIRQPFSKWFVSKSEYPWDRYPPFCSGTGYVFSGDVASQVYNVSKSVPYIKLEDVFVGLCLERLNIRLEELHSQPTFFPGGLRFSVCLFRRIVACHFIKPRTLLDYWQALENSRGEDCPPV

T2 sequence (Q8N4A0 36-578 limits assumed): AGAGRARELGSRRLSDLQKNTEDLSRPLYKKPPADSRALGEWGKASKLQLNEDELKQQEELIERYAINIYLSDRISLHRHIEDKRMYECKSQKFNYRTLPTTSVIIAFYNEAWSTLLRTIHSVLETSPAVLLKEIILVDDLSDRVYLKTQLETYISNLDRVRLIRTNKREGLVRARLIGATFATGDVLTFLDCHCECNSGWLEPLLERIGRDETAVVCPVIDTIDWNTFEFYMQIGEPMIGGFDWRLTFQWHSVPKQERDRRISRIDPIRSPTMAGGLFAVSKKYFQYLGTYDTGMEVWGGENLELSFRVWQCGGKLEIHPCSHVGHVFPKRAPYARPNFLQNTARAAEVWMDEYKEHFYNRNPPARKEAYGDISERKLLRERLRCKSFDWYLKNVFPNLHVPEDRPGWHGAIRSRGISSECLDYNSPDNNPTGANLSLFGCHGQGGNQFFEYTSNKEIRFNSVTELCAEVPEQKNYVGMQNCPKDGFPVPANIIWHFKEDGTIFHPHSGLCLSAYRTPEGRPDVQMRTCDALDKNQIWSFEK
T1 sequence (Q8N4A0 405-578): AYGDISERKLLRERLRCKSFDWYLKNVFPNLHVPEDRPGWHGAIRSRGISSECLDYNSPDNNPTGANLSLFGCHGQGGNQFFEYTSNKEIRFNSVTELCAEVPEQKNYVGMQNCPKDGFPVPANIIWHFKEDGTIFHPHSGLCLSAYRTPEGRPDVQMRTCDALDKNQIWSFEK
Sequence of GalNAc-T7 (Q86SF2 whole entry): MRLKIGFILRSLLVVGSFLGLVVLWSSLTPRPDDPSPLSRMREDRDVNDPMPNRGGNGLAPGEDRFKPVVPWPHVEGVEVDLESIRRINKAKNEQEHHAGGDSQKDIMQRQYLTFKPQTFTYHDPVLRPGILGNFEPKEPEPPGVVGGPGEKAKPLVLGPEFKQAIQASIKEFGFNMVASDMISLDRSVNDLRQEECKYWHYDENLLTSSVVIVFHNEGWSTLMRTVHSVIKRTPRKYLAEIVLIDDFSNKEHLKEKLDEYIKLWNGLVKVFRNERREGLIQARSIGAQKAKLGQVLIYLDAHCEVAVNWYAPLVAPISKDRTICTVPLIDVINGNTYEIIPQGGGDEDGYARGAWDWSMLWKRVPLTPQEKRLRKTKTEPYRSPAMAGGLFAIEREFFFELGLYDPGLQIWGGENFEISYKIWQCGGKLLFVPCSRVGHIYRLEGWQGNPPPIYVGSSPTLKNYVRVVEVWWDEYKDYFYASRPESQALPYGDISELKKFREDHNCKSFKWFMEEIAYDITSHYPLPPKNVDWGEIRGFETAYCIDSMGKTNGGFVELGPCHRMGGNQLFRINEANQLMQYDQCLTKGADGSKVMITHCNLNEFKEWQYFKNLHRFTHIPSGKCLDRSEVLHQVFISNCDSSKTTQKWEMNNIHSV

| Compound | IC50 (GalNAc-T4 lectin domain) | IC50 [1] | secreted MUC1 in medium [2] | MUC5AC in media (secretion) ([3]; listed as GalNAcα-benzyl) | MUC1 expression [4] | inhibition of lectin mediated GalNAc-glycopeptide substrate specificity of GalNAc-T7 (GalNAc-T7) | intracellular staining of MUC5AC / storage phenotype [5] | inhibition of O-glycan processing / sialylation (O-glycan processing) | MUC5AC in media (secretion) [3] | activity of β3Gal-T5 with the compound as acceptor (β3Gal-T5) |
| --- | --- | --- | --- | --- | --- | --- | --- | --- | --- | --- |
| CC(=O)N[C@H]1[C@@H](OCc2ccccc2)O[C@H](CO)[C@H](O)[C@@H]1O [BzlαGalNAc, benzyl-N-acetyl-alpha-D-galactosaminide] | 5 mM | 1 mM | inhibition | diminished secretion; also recorded: not detected | significant reduction | can inhibit | – | – | – | – |
| CC(=O)N[C@H]1[C@@H](OCc2ccccc2)O[C@H](CO)[C@H](O)[C@@H]1O [GalNAcα-benzyl, benzyl-N-acetyl-alpha-D-galactosaminide] | – | – | – | – | – | – | storage phenotype with increased intracellular staining of MUC5AC | inhibit sialylation | – | – |
| CC(=O)N[C@H]1[C@H](OCc2ccccc2)O[C@H](CO)[C@H](O)[C@@H]1O [GalNAcβ-benzyl] | – | – | inhibition | – | – | – | did not lead to a storage disease phenotype; also recorded: clearly diminished intracellular staining of MUC5AC | – | diminished secretion; also recorded: not detected | no or very poor activity |
